Data reported in publication PMC11631053, “A receptor-based assay to study the sweet and bitter tastes of sweeteners and binary sweet blends: the SWEET project” (Chemical Senses, 2024).
Values joined by “and” are separate entries in the source; they are usually repeats but may differ in a detail not shown here. Equal entries are not always repeated.

Assays:
[1] = biological target: T1, TAS2R4 (Homo sapiens, UniProt Q9NYW5); assay: Calcium mobilization assay, HEK293T-Gα16gust44 cells expressing TAS2R4; details: maximal concentration tested: sucralose 100 mM, neotame 30 µM, Ace-K 300 mM, RebA 4 mM, RebM 4 mM, mogroside V 5 mM, erythritol 200 mM, D-allulose 500 mM, thaumatin 100 mM
T1 sequence (Q9NYW5 1-299): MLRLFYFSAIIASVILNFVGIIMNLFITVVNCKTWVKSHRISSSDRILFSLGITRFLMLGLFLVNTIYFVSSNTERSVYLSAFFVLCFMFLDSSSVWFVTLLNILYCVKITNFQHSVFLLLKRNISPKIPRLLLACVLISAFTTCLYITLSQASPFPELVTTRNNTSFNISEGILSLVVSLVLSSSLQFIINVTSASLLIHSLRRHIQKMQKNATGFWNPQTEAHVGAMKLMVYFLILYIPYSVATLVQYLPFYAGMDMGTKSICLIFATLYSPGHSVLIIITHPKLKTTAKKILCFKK
Protocol: (§1) Different concentration ranges were tested depending on the injected sweet compound. […] All of the concentration-receptor combinations were measured in triplicate, and each experiment was repeated at least 3 times. The Ca^2+ change was expressed as a fractional change in fluorescent light intensity: ΔF/F = (F − F0)/F0, where F was the fluorescent light intensity at each point, and F0 was the value of fluorescent light emitted prior to stimulus application. To calculate dose–response relationships, the changes in fluorescence upon stimulus application were averaged, mock-subtracted and baseline-corrected. The resulting obtained dose–response data were adjusted by using a 4-parameter logistic equation. The half-maximal effective concentration (EC50) was calculated by using SigmaPlot software (Systat Software, San Jose, CA, USA) as described in supplemental Supplementary Figs. S1, S2, and S3.

[2] = biological target: T2, TAS2R8 (Homo sapiens, UniProt Q9NYW2); assay: Calcium mobilization assay, HEK293T-Gα16gust44 cells expressing TAS2R8; details: maximal concentration tested: sucralose 100 mM, neotame 30 µM, Ace-K 300 mM, RebA 4 mM, RebM 4 mM, mogroside V 5 mM, erythritol 200 mM, D-allulose 500 mM, thaumatin 100 mM
T2 sequence (Q9NYW2 1-309): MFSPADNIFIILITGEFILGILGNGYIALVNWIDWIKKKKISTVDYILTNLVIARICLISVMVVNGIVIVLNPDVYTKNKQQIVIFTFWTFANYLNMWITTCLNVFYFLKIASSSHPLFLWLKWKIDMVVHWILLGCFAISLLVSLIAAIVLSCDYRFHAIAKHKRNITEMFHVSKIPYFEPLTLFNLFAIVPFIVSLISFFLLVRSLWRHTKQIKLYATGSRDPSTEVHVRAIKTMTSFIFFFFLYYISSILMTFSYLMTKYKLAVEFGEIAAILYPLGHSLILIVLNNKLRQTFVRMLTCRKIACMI
Protocol: as §1

[3] = biological target: T3, TAS2R10 (Homo sapiens, UniProt Q9NYW0); assay: Calcium mobilization assay, HEK293T-Gα16gust44 cells expressing TAS2R10; details: for Response of TAS2R10: maximal concentration tested: sucralose 100 mM, neotame 30 µM, Ace-K 300 mM, RebA 4 mM, RebM 4 mM, mogroside V 5 mM, erythritol 200 mM, D-allulose 500 mM, thaumatin 100 mM
T3 sequence (Q9NYW0 1-307): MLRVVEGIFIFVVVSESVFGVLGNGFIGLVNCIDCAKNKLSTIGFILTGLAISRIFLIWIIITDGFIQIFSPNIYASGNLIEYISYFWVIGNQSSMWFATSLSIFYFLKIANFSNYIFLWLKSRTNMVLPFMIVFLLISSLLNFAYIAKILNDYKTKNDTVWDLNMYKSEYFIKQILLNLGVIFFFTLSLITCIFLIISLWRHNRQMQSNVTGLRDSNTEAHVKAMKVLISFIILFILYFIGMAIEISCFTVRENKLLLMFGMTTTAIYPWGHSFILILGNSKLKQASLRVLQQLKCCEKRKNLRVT
Protocol: (§2) Different concentration ranges were tested depending on the injected sweet compound. […] All of the concentration-receptor combinations were measured in triplicate, and each experiment was repeated at least 3 times. The Ca^2+ change was expressed as a fractional change in fluorescent light intensity: ΔF/F = (F − F0)/F0, where F was the fluorescent light intensity at each point, and F0 was the value of fluorescent light emitted prior to stimulus application. To calculate dose–response relationships, the changes in fluorescence upon stimulus application were averaged, mock-subtracted and baseline-corrected. The resulting obtained dose–response data were adjusted by using a 4-parameter logistic equation.

[4] = biological target: T4, TAS2R14 (Homo sapiens, UniProt Q9NYV8); assay: Calcium mobilization assay, HEK293T-Gα16gust44 cells expressing TAS2R14; details: maximal concentration tested: sucralose 100 mM, neotame 30 µM, Ace-K 300 mM, RebA 4 mM, RebM 4 mM, mogroside V 5 mM, erythritol 200 mM, D-allulose 500 mM, thaumatin 100 mM
T4 sequence (Q9NYV8 1-317): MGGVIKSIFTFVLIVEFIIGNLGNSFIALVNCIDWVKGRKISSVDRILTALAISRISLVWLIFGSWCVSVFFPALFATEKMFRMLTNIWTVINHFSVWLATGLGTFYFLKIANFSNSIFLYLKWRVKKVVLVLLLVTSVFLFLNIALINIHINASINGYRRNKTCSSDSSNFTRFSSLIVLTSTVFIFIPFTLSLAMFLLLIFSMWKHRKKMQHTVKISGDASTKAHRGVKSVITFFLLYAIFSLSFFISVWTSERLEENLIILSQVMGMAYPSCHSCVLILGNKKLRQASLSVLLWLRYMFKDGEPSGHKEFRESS
Protocol: as §2

[5] = biological target: T5, TAS2R30 (Homo sapiens, UniProt P59541); assay: Calcium mobilization assay, HEK293T-Gα16gust44 cells expressing TAS2R30; details: for Response of TAS2R30: maximal concentration tested: sucralose 100 mM, neotame 30 µM, Ace-K 300 mM, RebA 4 mM, RebM 4 mM, mogroside V 5 mM, erythritol 200 mM, D-allulose 500 mM, thaumatin 100 mM
T5 sequence (P59541 1-319): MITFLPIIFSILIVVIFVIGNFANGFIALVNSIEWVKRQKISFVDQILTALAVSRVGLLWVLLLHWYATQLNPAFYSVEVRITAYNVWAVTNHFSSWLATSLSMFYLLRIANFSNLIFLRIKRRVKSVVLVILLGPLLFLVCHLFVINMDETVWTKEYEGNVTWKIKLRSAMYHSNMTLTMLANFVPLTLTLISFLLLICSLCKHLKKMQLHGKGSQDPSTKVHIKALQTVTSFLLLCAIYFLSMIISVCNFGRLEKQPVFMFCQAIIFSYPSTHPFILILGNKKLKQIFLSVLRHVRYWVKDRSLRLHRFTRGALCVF
Protocol: as §2

[6] = biological target: T6, TAS2R39 (Homo sapiens, UniProt P59534); assay: Calcium mobilization assay, HEK293T-Gα16gust44 cells expressing TAS2R39; details: maximal concentration tested: sucralose 100 mM, neotame 30 µM, Ace-K 300 mM, RebA 4 mM, RebM 4 mM, mogroside V 5 mM, erythritol 200 mM, D-allulose 500 mM, thaumatin 100 mM
T6 sequence (P59534 1-338): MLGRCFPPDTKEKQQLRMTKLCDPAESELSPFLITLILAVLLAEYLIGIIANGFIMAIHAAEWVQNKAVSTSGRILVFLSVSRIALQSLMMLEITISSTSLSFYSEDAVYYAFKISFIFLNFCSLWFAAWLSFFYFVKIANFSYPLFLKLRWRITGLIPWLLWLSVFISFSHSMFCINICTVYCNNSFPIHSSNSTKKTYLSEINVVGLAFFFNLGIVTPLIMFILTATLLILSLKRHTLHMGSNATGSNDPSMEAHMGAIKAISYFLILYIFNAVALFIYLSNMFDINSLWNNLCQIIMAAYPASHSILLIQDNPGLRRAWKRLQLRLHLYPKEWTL
Protocol: as §2

[7] = biological target: TAS2R40 (Homo sapiens, UniProt P59535); assay: Calcium mobilization assay, HEK293T-Gα16gust44 cells expressing TAS2R40; details: maximal concentration tested: sucralose 100 mM, neotame 30 µM, Ace-K 300 mM, RebA 4 mM, RebM 4 mM, mogroside V 5 mM, erythritol 200 mM, D-allulose 500 mM, thaumatin 100 mM
TAS2R40, sequence (P59535 whole entry): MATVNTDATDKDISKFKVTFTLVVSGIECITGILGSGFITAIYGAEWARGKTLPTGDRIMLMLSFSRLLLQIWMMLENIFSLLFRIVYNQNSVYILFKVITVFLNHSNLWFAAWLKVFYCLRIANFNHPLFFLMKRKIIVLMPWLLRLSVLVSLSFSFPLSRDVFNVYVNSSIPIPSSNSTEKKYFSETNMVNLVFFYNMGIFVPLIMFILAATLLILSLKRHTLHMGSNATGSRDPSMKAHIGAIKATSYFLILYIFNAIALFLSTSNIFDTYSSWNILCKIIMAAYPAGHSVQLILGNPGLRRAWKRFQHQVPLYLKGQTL
Protocol: as §2

[8] = biological target: T7, TAS2R50 (Homo sapiens, UniProt P59544); assay: Calcium mobilization assay, HEK293T-Gα16gust44 cells expressing TAS2R50; details: maximal concentration tested: sucralose 100 mM, neotame 30 µM, Ace-K 300 mM, RebA 4 mM, RebM 4 mM, mogroside V 5 mM, erythritol 200 mM, D-allulose 500 mM, thaumatin 100 mM
T7 sequence (P59544 1-299): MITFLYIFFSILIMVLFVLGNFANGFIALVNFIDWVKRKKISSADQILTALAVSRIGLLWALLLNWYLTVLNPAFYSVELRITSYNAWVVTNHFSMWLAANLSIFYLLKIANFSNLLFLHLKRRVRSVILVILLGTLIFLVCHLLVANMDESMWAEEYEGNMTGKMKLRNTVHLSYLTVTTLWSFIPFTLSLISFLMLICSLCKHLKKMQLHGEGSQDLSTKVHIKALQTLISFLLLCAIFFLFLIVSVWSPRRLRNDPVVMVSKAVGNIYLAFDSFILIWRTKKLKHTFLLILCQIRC
Protocol: as §1

[9] = biological target: TAS2R38-PAV (Homo sapiens, UniProt P59533, A49P/I296V); assay: Calcium mobilization assay, HEK293T-Gα16gust44 cells expressing TAS2R38-PAV
TAS2R38-PAV, sequence (P59533 whole entry A49P/I296V): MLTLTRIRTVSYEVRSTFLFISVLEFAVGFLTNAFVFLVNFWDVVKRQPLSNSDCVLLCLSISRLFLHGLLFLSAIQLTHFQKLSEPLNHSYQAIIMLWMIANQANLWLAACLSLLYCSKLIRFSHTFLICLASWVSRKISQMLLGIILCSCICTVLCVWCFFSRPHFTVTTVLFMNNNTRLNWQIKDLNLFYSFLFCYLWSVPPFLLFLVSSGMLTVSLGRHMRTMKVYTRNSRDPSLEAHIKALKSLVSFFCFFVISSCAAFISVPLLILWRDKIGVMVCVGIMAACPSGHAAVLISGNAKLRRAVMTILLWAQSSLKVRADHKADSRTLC
Protocol: as §1

Compound	Response of TAS2R4 [1]	Response of TAS2R8 [2]	Response of TAS2R10 [3]	Response of TAS2R14 [4]	Response of TAS2R30 [5]	Response of TAS2R39 [6]	Response of TAS2R40 [7]	Response of TAS2R50 [8]	EC50 ([3]; TAS2R10 EC50)	concentrations at which TAS2R30 was activated [5] [mM]	concentrations at which TAS2R38-PAV was activated [9] [mM]	EC50 ([9]; read-out: TAS2R38-PAV EC50, text prints TAS2R38) [mM]
CC1=CC(=O)NS(=O)(=O)O1 [Ace-K, acesulfame-K]	−	−	−	−	−	−	−	−				
O=C(CO)[C@H](O)[C@H](O)[C@H](O)CO [D-allulose]	−	−	−	+	+	−	−	−		> 300	> 300	
OC[C@@H](O)[C@@H](O)CO [Erythritol, erythritol]	−	−	−	−	−	−	−	−				
C[C@H](CC[C@@H](O[C@@H]1O[C@H](CO[C@@H]2O[C@H](CO)[C@@H](O)[C@H](O)[C@H]2O)[C@@H](O)[C@H](O)[C@H]1O[C@@H]1O[C@H](CO)[C@@H](O)[C@H](O)[C@H]1O)C(C)(C)O)[C@H]1CC[C@@]2(C)[C@@H]3CC=C4[C@@H](CC[C@H](O[C@@H]5O[C@H](CO[C@@H]6O[C@H](CO)[C@@H](O)[C@H](O)[C@H]6O)[C@@H](O)[C@H](O)[C@H]5O)C4(C)C)[C@]3(C)[C@H](O)C[C@]12C [Mogroside V, mogroside V]	−	−	−	−	−	−	−	−				0.253 ± 0.139

Now from value to compound, other results behind:

Response of TAS2R4 [1]	Response of TAS2R8 [2]	Response of TAS2R10 [3]	Response of TAS2R14 [4]	Response of TAS2R30 [5]	Response of TAS2R39 [6]	Response of TAS2R40 [7]	Response of TAS2R50 [8]	EC50 ([3]; TAS2R10 EC50)	Compound	concentrations at which TAS2R30 was activated [5] [mM]	concentrations at which TAS2R38-PAV was activated [9] [mM]	EC50 ([9]; read-out: TAS2R38-PAV EC50, text prints TAS2R38) [mM]
−	−	−	−	−	−	−	−		COC(=O)[C@H](Cc1ccccc1)NC(=O)[C@H](CC(=O)O)NCCC(C)(C)C [Neotame]			
−	−	−	−	−	−	−	−		C=C1C[C@@]23CC[C@H]4[C@@](C)(CCC[C@@]4(C)C(=O)O[C@@H]4O[C@H](CO)[C@@H](O)[C@H](O[C@@H]5O[C@H](CO)[C@@H](O)[C@H](O)[C@H]5O)[C@H]4O[C@@H]4O[C@H](CO)[C@@H](O)[C@H](O)[C@H]4O)[C@@H]2CC[C@]1(O[C@@H]1O[C@H](CO)[C@@H](O)[C@H](O[C@@H]2O[C@H](CO)[C@@H](O)[C@H](O)[C@H]2O)[C@H]1O[C@@H]1O[C@H](CO)[C@@H](O)[C@H](O)[C@H]1O)C3 [RebM, Rebaudioside M]			
−	−	#^a	−	−	−	−	−	17 mM and ≥ 3 mM	OC[C@H]1O[C@H](O[C@]2(CCl)O[C@H](CCl)[C@@H](O)[C@@H]2O)[C@H](O)[C@@H](O)[C@H]1Cl [Sucralose, sucralose]			
−	−	−	−	−	−	−	−		thaumatin			
